Experimental data published in ChEMBL document CHEMBL1201862, “PubChem BioAssay data set” (2004).
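These data come from cells grown in 96-well plates and exposed to compound for 48 hours at five concentrations. At the GI50, growth is halved.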 The source made the active and inactive calls. No stated cut-off is given here; in the data, active = GI50 up to about 1.1 µM and inactive = higher.

What was measured:
Test in all cases: NCI-60 cell line screen, 48 h
HCT-116 = system: HCT-116
HCC 2998 = system: HCC 2998
UO-31 = system: UO-31
MDA-MB-231 = system: MDA-MB-231
Hs-578T = system: Hs-578T
OVCAR-5 = system: OVCAR-5
NCI-H460 = system: NCI-H460
SK-MEL-28 = system: SK-MEL-28
KM12 = system: KM12
NCI-H226 = system: NCI-H226
CAKI-1 = system: CAKI-1
HOP-62 = system: HOP-62
NCI/ADR-RES = system: NCI/ADR-RES
SK-MEL-5 = system: SK-MEL-5
UACC-62 = system: UACC-62
MDA-N = system: MDA-N
SK-MEL-2 = system: SK-MEL-2
NCI-H522 = system: NCI-H522
A549 = system: A549
SF-268 = system: SF-268
T47D = system: T47D
SF-539 = system: SF-539
HCT-15 = system: HCT-15
SK-OV-3 = system: SK-OV-3
ACHN = system: ACHN
MDA-MB-435 = system: MDA-MB-435
SR = system: SR
HOP-92 = system: HOP-92
SNB-19 = system: SNB-19
A498 = system: A498
SF-295 = system: SF-295
Malme-3M = system: Malme-3M
UACC-257 = system: UACC-257
OVCAR-8 = system: OVCAR-8
TK-10 = system: TK-10
786-0 = system: 786-0
OVCAR-3 = system: OVCAR-3
NCI-H23 = system: NCI-H23
U-251 = system: U-251
EKVX = system: EKVX
PC-3 = system: PC-3
RXF 393 = system: RXF 393
COLO 205 = system: COLO 205
DU-145 = system: DU-145
HT-29 = system: HT-29
BT-549 = system: BT-549
OVCAR-4 = system: OVCAR-4
LOX IMVI = system: LOX IMVI
M14 = system: M14
SW-620 = system: SW-620
SN12C = system: SN12C
HL-60 = system: HL-60
IGROV-1 = system: IGROV-1
SNB-75 = system: SNB-75
CCRF-CEM = system: CCRF-CEM
RPMI-8226 = system: RPMI-8226
MOLT-4 = system: MOLT-4
K562 = system: K562

CCN(CCCN(CC)C(=O)N[C@@H](Cc1ccccc1)C(=O)NC)C(=O)N[C@@H](Cc1ccccc1)C(=O)NC
GI50 (HCT-116): > 100 µM (inactive)
GI50 (HCC 2998): > 100 µM (inactive)
GI50 (UO-31): > 100 µM (inactive)
GI50 (MDA-MB-231): > 100 µM (inactive)
GI50 (Hs-578T): > 100 µM (inactive)
GI50 (OVCAR-5): > 100 µM (inactive)
GI50 (NCI-H460): > 100 µM (inactive)
GI50 (SK-MEL-28): > 100 µM (inactive)
GI50 (KM12): > 100 µM (inactive)
GI50 (NCI-H226): > 100 µM (inactive)
GI50 (CAKI-1): > 100 µM (inactive)
GI50 (HOP-62): > 100 µM (inactive)
GI50 (NCI/ADR-RES): > 100 µM (inactive)
GI50 (SK-MEL-5): > 100 µM (inactive)
GI50 (UACC-62): > 100 µM (inactive)
GI50 (MDA-N): > 100 µM (inactive)
GI50 (SK-MEL-2): > 100 µM (inactive)
GI50 (NCI-H522): > 100 µM (inactive)
GI50 (A549): > 100 µM (inactive)
GI50 (SF-268): > 100 µM (inactive)
GI50 (T47D): > 100 µM (inactive)
GI50 (SF-539): > 100 µM (inactive)
GI50 (HCT-15): > 100000 nM
GI50 (SK-OV-3): > 100 µM (inactive)
GI50 (ACHN): > 100 µM (inactive)
GI50 (MDA-MB-435): > 100 µM (inactive)
GI50 (SR): > 100 µM (inactive)
GI50 (HOP-92): > 100 µM (inactive)
GI50 (SNB-19): > 100 µM (inactive)
GI50 (A498): > 100 µM (inactive)
GI50 (SF-295): > 100 µM (inactive)
GI50 (Malme-3M): > 100 µM (inactive)
GI50 (UACC-257): > 100 µM (inactive)
GI50 (OVCAR-8): > 100 µM (inactive)
GI50 (TK-10): > 100 µM (inactive)
GI50 (786-0): > 100 µM (inactive)
GI50 (OVCAR-3): > 100 µM (inactive)
GI50 (NCI-H23): > 100 µM (inactive)
GI50 (U-251): > 100 µM (inactive)
GI50 (EKVX): > 100 µM (inactive)
GI50 (PC-3): > 100 µM (inactive)
GI50 (RXF 393): > 100 µM (inactive)
GI50 (COLO 205): > 100 µM (inactive)
GI50 (DU-145): > 100 µM (inactive)
GI50 (HT-29): > 100 µM (inactive)
GI50 (BT-549): > 100 µM (inactive)
GI50 (OVCAR-4): > 100 µM (inactive)
GI50 (LOX IMVI): > 100 µM (inactive)
GI50 (M14): > 100 µM (inactive)
GI50 (SW-620): > 100 µM (inactive)

CCOC(=O)C(=Cc1ccccc1Cl)C(=O)OCC
GI50 (SN12C): 1.6 µM (inactive)
GI50 (HCT-116): 0.558 µM (active)
GI50 (HCC 2998): > 10 µM (inactive)
GI50 (UO-31): 1.71 µM (inactive)
GI50 (MDA-MB-231): 1.83 µM (inactive)
GI50 (Hs-578T): 2.89 µM (inactive)
GI50 (OVCAR-5): 1.88 µM (inactive)
GI50 (NCI-H460): 3.21 µM (inactive)
GI50 (SK-MEL-28): 1.94 µM (inactive)
GI50 (KM12): 1.31 µM (inactive)
GI50 (NCI-H226): 2.9 µM (inactive)
GI50 (CAKI-1): 2.02 µM (inactive)
GI50 (HOP-62): 2.13 µM (inactive)
GI50 (NCI/ADR-RES): 2 µM (inactive)
GI50 (SK-MEL-5): 2.06 µM (inactive)
GI50 (UACC-62): 1.69 µM (inactive)
GI50 (MDA-N): 1.12 µM (active)
GI50 (SK-MEL-2): 2.03 µM (inactive)
GI50 (NCI-H522): 2.03 µM (inactive)
GI50 (A549): 2.21 µM (inactive)
GI50 (HL-60): 1.23 µM (inactive)
GI50 (SF-268): 2.19 µM (inactive)
GI50 (T47D): 2.64 µM (inactive)
GI50 (SF-539): 2.1 µM (inactive)
GI50 (HCT-15): 1720 nM
GI50 (SK-OV-3): 5.26 µM (inactive)
GI50 (ACHN): 2.61 µM (inactive)
GI50 (MDA-MB-435): 1.13 µM (inactive)
GI50 (IGROV-1): 3.49 µM (inactive)
GI50 (SR): 0.547 µM (active)
GI50 (HOP-92): 2.88 µM (inactive)
GI50 (SNB-19): 1.84 µM (inactive)
GI50 (A498): 2.92 µM (inactive)
GI50 (SF-295): 2.47 µM (inactive)
GI50 (SNB-75): 17.4 nM (active)
GI50 (Malme-3M): 1.82 µM (inactive)
GI50 (UACC-257): 1.82 µM (inactive)
GI50 (CCRF-CEM): 705 nM (active)
GI50 (RPMI-8226): 1.56 µM (inactive)
GI50 (OVCAR-8): 0.938 µM (active)
GI50 (786-0): 1.34 µM (inactive)
GI50 (OVCAR-3): 1.41 µM (inactive)
GI50 (NCI-H23): 1.66 µM (inactive)
GI50 (U-251): 1.63 µM (inactive)
GI50 (MOLT-4): 2.52 µM (inactive)
GI50 (EKVX): 3.03 µM (inactive)
GI50 (PC-3): 1.79 µM (inactive)
GI50 (K562): 1.15 µM (inactive)
GI50 (RXF 393): 1.61 µM (inactive)
GI50 (COLO 205): 1.57 µM (inactive)
GI50 (DU-145): 1.92 µM (inactive)
GI50 (HT-29): 1.43 µM (inactive)
GI50 (BT-549): 1.62 µM (inactive)
GI50 (OVCAR-4): 2.27 µM (inactive)
GI50 (LOX IMVI): 1.75 µM (inactive)
GI50 (M14): 1.5 µM (inactive)
GI50 (SW-620): 1.32 µM (inactive)
